Laboratory results as given in patent US9827313B2, “Self-assembled pharmaceutical composition for photodynamic therapy” (SNU R&DB FOUNDATION, priority 2014, dated 2017).

What was measured:
[1] = tested on: heterogeneous CT26 tumors; experiment: In vivo PDT in heterogeneous drug-resistant CT26 tumors; parameters: species or system BALB/c nude mice; conditions: heterogeneous CT26 tumors after PDT
Procedure: For histology analysis, tumor tissues from control and treated mice were fixed in 10% neutral buffered formalin and frozen sectioned into 5 micron thick slices, stained with hematoxylin & eosin (H&E) and terminal deoxynucleotidyl transferase dUTP nick-end labeling (TUNEL), and were examined by a digital microscope (Leica QWin) and a confocal laser scanning microscope (LSM 510 Meta; Zeiss, Germany).
For in vitro PDT, HCT116 cells (5×10^4/well) were incubated with the materials described above. Photosensitization experiments were then performed by irradiating the cells with a 670-nm laser source (Institute of Electronics) for 2 min. The power at the level of the cells was fixed at 5 mW/cm^2. Cell viability was assessed using the MTT assay. Absorbance intensity was measured at 595 nm using a microplate reader (Bio-Tek, VT, USA). A parallel set of control cells was also used in which cells incubated with the respective materials were not exposed to laser irradiation. […] The tumor size was measured 3 times a week after the first PDT treatment by using a Vernier caliper, and tumor volumes were calculated from width (a) and length (b) measurements (V=a^2×b/2, where a≦b). All mice were killed when the tumor measured 1,000 mm^3, at the first sign of suffering, or between 15 and 21 day post-transplantation.

HCT116 cancer cells = experiment: pH-dependent cellular uptake (flow cytometry, fluorescence imaging); format: cell-based, human; conditions: HCT116, pH 6.8 vs pH 7.4
Procedure: HCT116 cells were exposed to PMNs, InS-NPs and Ce6 at different pHs to verify their cellular uptake respectively. The cells were incubated for 2 h, washed, harvested, and re-suspended with DPBS. In vitro cellular uptake was quantified using a flow cytometer (Beckman, San Jose, Calif., USA). For each sample 10,000 cells (gated events) were counted, and free Ce6 fluorescence was detected with logarithmic settings (FL4; λem=670 nm). Cells were counted as positive if their fluorescence (FL4) was higher than that of cells from an untreated cell suspension. Each experiment was analyzed statistically using the CXP Analysis Program.
The tumor cellular uptake of PMNs was monitored at different pH conditions (pH 7.4 and 6.8) using a KODAK In vivo Image Station (Image Station 4000 MM; Kodak, New Haven, Conn., USA) and a flow cytometer (Beckman, San Jose, Calif., USA). HCT116 cells (1×10^5 cells/mL) were incubated with each sample for 2 h in RPMI-1640 medium (pH 7.4 or 6.8, with 1% penicillin-streptomycin) at 37° C. and then analyzed. To ameliorate photobleaching during microscope observation, a drop of anti-fade mounting solution (5% N-propyl gallate, 47.5% glycerol, and 47.5% Tris-HCl, pH 8.4) was added to the cells.

chlorin E6 [Ce6]
damage to tumor tissue cells, microvasculature and fibroblasts (H&E, TUNEL) [1]: no obvious damage | cellular uptake, pH dependence (HCT116 cancer cells): not affected by changes in pH
